Read-outs that look alike come from different tables or passages of the source.
How the values were obtained:
[1] = tested on: CRL2351 human breast cancer; assay: SRB assay (inhibition of cell proliferation); format: cell-based; details: CRL2351 human breast cancer cells
From the text: (§1) A sulfur rhodamine B (SRB) assay was used to determine the extent of inhibition of cell proliferation as a measure of the anti-cancer activity of compounds of the present disclosure. The reagent SRB binds to cellular proteins and absorbs light proportionally to the cellular protein content, which is a surrogate marker for the number of cells. According to aspects of the present disclosure, the assay can be used to with any cancer cell line including breast cancer cell lines, prostate cancer cell lines, melanoma cell lines, lung cancer cell lines or any other cell lines of the cancers described herein.
(§2) The following protocol was used to determine the growth characteristics of certain cell lines CRL2351 human breast cancer and CRL2813 human melanoma from which cell lines having doubling times less than 48 hours were selected for growth inhibition experiments. […] The following materials were used in addition to the cancel cell lines: complete (5% fetal calf serum added) tissue culture media, 96-well tissue culture plates, Sulforhodamine B dye (SRB, 0.57% w/w), […] (TCA, 10%), acetic acid glacial (1%) and 10 mM Tris base. The cells were prepared and plated. Cancer cells were grown to 80% confluency in an incubator. The cells were trypsinized per standard protocol or as needed for each cell line. The trypsin was neutralized, cells dissociated and counted. Each cell line was plated at a density of 500, 1000 and 3000 cells per well (six wells each) in five separate plates. The cells were then returned to the incubator. One plate was then removed each day starting day one after plating. 100 μl of 10% TCA was then added and the cells were fixed at 4° C. until all the cells were fixed. […] The cell growth for vehicle treatment is considered to be 100%. The optical density was then measured and plotted for each starting cell number and cell line against time. The percent cell growth inhibition was calculated as 100 minus the % of control cell growth. The % of control cell growth=((mean OD sample−Mean OD day 0)/(mean OD vehicle−Mean OD day 0))*100.

CRL2813 human melanoma = assay: SRB assay (inhibition of cell proliferation); format: cell-based
From the text: as §1, §2

eIF4E/eIF4G interaction = eIF4E/eIF4G interaction (Homo sapiens, UniProt P06730); assay: Fluorescent polarization assay; format: binding; details: FITC eIF4G peptide and recombinant eIF4E, ratio to Z (4EGI-1 = 1)
eIF4E/eIF4G interaction, sequence (P06730 whole entry): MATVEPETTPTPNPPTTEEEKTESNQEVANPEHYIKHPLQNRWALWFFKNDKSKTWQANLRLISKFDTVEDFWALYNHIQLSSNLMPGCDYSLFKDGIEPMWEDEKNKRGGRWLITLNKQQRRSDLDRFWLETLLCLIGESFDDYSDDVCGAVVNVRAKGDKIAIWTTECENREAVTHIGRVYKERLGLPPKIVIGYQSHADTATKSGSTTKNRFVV
Method: The difference between the two measurement yields net polarization which is considered full signal of the assay (100% control). […] The activity of compound at each concentration is determined by comparing the fluorescent polarization (FP) signal in the presence of compound to the control (no compound) value. The percent inhibition is =100-((FP compound/FP control)*100).

[2] = Homo sapiens, summary table, read-out: IC50 [μM} CRL2351
[3] = Homo sapiens, CRL2813, CRL2813 human melanoma cells, summary table, read-out: IC50 [μM} CRL2813
[4] = summary table, read-out: IC50 [μM} CRL2351
[5] = CRL2813 human melanoma cells, summary table, read-out: IC50 [μM} CRL2813
[6] = Tables 1, 4, 5, read-out: SRB-IC50 (μM) 2351
[7] = CRL2813 human melanoma cells, Tables 1, 4, 5, read-out: SRB-IC50 (μM) 2813

Fp (ratio to Z) (eIF4E/eIF4G interaction) | Compound | IC50 [1, 6] [µM] | IC50 (CRL2813 human melanoma; [7]) [µM] | further results
1 | COCc1cn(-c2ccc(-c3sc(NN=C(Cc4ccccc4[N+](=O)[O-])C(=O)O)nc3-c3ccc(OC)cc3)cc2)nn1 [KY-443A16-19] | – | – | IC50 [1, 2]: > 20 µM; IC50 (CRL2813 human melanoma; [3]): 14 ± 0.73 µM
0.65 | O=C(O)/C(Cc1ccccc1[N+](=O)[O-])=N/Nc1nc(-c2ccc(OC(F)(F)F)cc2)cs1 [KY-627S] | – | – | IC50 [1, 2]: > 20 µM; IC50 (CRL2813 human melanoma; [3]): > 20 µM
1.3 | O=C(O)c1nn(-c2nc(-c3ccc(Cl)c(Cl)c3)cs2)c2ccc([N+](=O)[O-])cc12 [RYF-440] | – | – | –
0.61 | O=C(O)C(Cc1ccccc1[N+](=O)[O-])=NNc1nc(-c2ccc(Br)cc2)cs1 [KH-53S] | – | – | –
0.96 | O=C(O)C(Cc1ccccc1[N+](=O)[O-])=NNc1nc(-c2ccc(OCCCCCOc3ccccc3)cc2)cs1 [KH-333S] | – | – | –
0.96 | O=C(O)C(Cc1ccccc1[N+](=O)[O-])=NNc1nc(-c2ccc(OCCCCOc3ccc(Cl)cc3)cc2)cs1 [KH-336S] | – | – | –
0.82 | O=C(O)[C@@H](Cc1cccc([N+](=O)[O-])c1)Nc1nc(-c2ccc(Cl)c(Cl)c2)cs1 [KY-365] | – | – | IC50 [1, 2]: 3 µM
1.50 | O=C(O)/C(Cc1ccccc1[N+](=O)[O-])=N\Nc1nc(-c2ccc(OCCCCCBr)cc2)cs1 [KH-148I] | – | – | IC50 (CRL2813 human melanoma; [3]): 0.9 µM
1 | COc1ccc(-c2sc(N/N=C(/Cc3ccccc3[N+](=O)[O-])C(=O)O)nc2-c2ccc(C3CCCCC3)cc2)cc1 [KY-612SF] | – | – | IC50 (CRL2813 human melanoma; [5]): 0.1 µM
0.86 | O=C(O)C(=NNc1nc(-c2ccc(Cl)c(Cl)c2)cs1)c1cccc([N+](=O)[O-])c1 (stereo in doubt) [KY-788-Z, (Z)-2-(2-(4-(3,4-dichlorophenyl)thiazol-2-yl)hydrazono)-2-(3-nitrophenyl)acetic acid] | – | – | IC50 [1, 2]: > 20 µM
0.99 | [N-]=[N+]=Nc1ccc(-c2csc(NN=C(Cc3ccccc3[N+](=O)[O-])C(=O)O)n2)cc1 [KH-8] | – | – | –
0.62 | O=C(O)/C(Cc1ccccc1[N+](=O)[O-])=N\Nc1nc(-c2ccc(N3CCOCC3)c(Br)c2)cs1 [KH-287II-S] | – | – | –
1.09 | O=C(O)C(Cc1ccccc1[N+](=O)[O-])=NNc1nc(-c2ccc(OCCCOc3ccc(Cl)cc3)cc2)cs1 [KH-332S] | – | – | –

The remaining lines, values behind:

Compound | Fp (ratio to Z) (eIF4E/eIF4G interaction) | IC50 [1, 6] [µM] | IC50 (CRL2813 human melanoma; [7]) [µM] | further results
2-(2-(6,7-dichloro-4,5-dihydronaphtho[1,2-d]thiazol-2-yl)hydrazono)-3-(2-nitrophenyl)propanoic acid [PC-163S] | – | – | – | IC50 [1, 4]: 3 µM; IC50 (CRL2813 human melanoma; [5]): 3 µM
O=C(O)C(Cc1ccccc1[N+](=O)[O-])=NNc1nc(-c2cccc(OCCCBr)c2)cs1 (single isomer, unassigned) [KH154-s] | – | 1.5 | – | –
O=C(O)C(Cc1ccccc1[N+](=O)[O-])=NNc1nc(-c2ccc(OCCCBr)cc2)cs1 (single isomer, unassigned) [KH147-f] | – | 0.5 | 1.1 | –
O=C(O)C(Cc1ccccc1[N+](=O)[O-])=NNc1nc(-c2ccc(OCCCCCBr)cc2)cs1 (mixture of isomers) [KH148] | – | < 0.54 | 0.8 | –
O=C(O)C(Cc1ccccc1[N+](=O)[O-])=NNc1nc(-c2ccccc2OCCCCCBr)cs1 (single isomer, unassigned) [KH152-s] | – | 7.8 | 4.5 | –
O=C(O)/C(Cc1ccccc1[N+](=O)[O-])=N/Nc1nc2c(s1)COc1cc(Cl)c(Cl)cc1-2 [PC-204F, 2-(2-(7,8-dichloro-4H-chromeno[4,3-d]thiazol-2-yl)hydrazono)-3-(2-nitrophenyl)propanoic acid] | – | – | – | IC50 [1, 2]: 2 µM
O=C(O)C(Cc1ccccc1[N+](=O)[O-])=NNc1nc(-c2ccccc2OCCCCCBr)cs1 (single isomer, unassigned) [KH152-f] | – | 2.4 | < 1 | –
O=C(O)C(Cc1ccccc1[N+](=O)[O-])=NNc1nc(-c2cccc(OCCCCBr)c2)cs1 (mixture of isomers) [KH155] | – | 8.6 | 10.8 | –
2-(2-(6,7-dichloro-4,5-dihydronaphtho[1,2-d]thiazol-2-yl)hydrazono)-3-(2-nitrophenyl)propanoic acid [PC-163F] | – | – | – | IC50 [1, 4]: < 1 µM; IC50 (CRL2813 human melanoma; [5]): < 1 µM
O=C(O)C(Cc1ccccc1[N+](=O)[O-])=NNc1nc(-c2ccc(Cl)c(Cl)c2)cs1 [Compound 4EGI-1, reference compound] | – | – | – | IC50 ([1]; Homo sapiens, Tables 1, 4, 5, read-out: SRB-IC50 (μM) 2351): 6.5 µM; IC50 [1, 2]: 5 ± 1.6 µM; IC50 (CRL2813 human melanoma; Homo sapiens, CRL2813, CRL2813 human melanoma cells, Tables 1, 4, 5, read-out: SRB-IC50 (μM) 2813): 1.3 µM; IC50 (CRL2813 human melanoma; [3]): 3.8 ± 1.06 µM
O=C(O)C(Cc1ccccc1[N+](=O)[O-])=NNc1nc(-c2ccccc2OCCBr)cs1 (single isomer, unassigned) [KH149-f] | – | 1 | 1 | –
O=C(O)C(Cc1ccccc1[N+](=O)[O-])=NNc1nc(-c2ccc(OCCCBr)cc2)cs1 (single isomer, unassigned) [KH147-s] | – | 11.2 | 5.5 | –
O=C(O)/C(Cc1ccccc1[N+](=O)[O-])=N/Nc1nc2c(s1)CSc1c-2ccc(Cl)c1Cl [PC-218F] | – | – | – | IC50 [1, 2]: < 1 µM; IC50 (CRL2813 human melanoma; [3]): 8 µM
O=C(O)C(Cc1ccccc1[N+](=O)[O-])=NNc1nc(-c2ccc(OCCBr)cc2)cs1 (single isomer, unassigned) [KH146-s] | – | 14.5 | 14 | –
O=C(O)C(Cc1ccccc1[N+](=O)[O-])=NNc1nc(-c2cccc(OCCBr)c2)cs1 (single isomer, unassigned) [KH153-s] | – | 14 | – | –
O=C(O)/C(Cc1ccccc1[N+](=O)[O-])=N\Nc1nc2c(s1)COc1c-2ccc(Cl)c1Cl [PC-202S, 2-(2-(6,7-dichloro-4H-chromeno[4,3-d]thiazol-2-yl)hydrazono)-3-(2-nitrophenyl)propanoic acid] | – | – | – | IC50 (CRL2813 human melanoma; [3]): 4.5 µM
O=C(O)C(Cc1ccccc1[N+](=O)[O-])=NNc1nc(-c2ccccc2OCCCBr)cs1 (mixture of isomers) [KH150] | – | 2.8 | 0.9 | –
O=C(O)C(Cc1ccccc1[N+](=O)[O-])=NNc1nc(-c2cccc(OCCCCCBr)c2)cs1 (mixture of isomers) [KH156] | – | 9.1 | 6 | –
O=C(O)C(Cc1ccccc1[N+](=O)[O-])=NNc1nc(-c2ccccc2OCCBr)cs1 (single isomer, unassigned) [KH149-s] | – | 6 | 11.5 | –
2-(2-(7,8-dichloro-4H-chromeno[4,3-d]thiazol-2-yl)hydrazono)-3-(2-nitrophenyl)propanoic acid [PC-204S] | – | – | – | IC50 [1, 4]: < 1 µM; IC50 (CRL2813 human melanoma; [5]): 3 µM
O=C(O)C(Cc1ccccc1[N+](=O)[O-])=NNc1nc(-c2cccc(OCCBr)c2)cs1 (single isomer, unassigned) [KH153-f] | – | 13.2 | 8 | –
COc1cc2c(cc1OC)-c1nc(N/N=C(/Cc3ccccc3[N+](=O)[O-])C(=O)O)sc1CC2 [PC-195S, (Z)-2-(2-(7,8-dimethoxy-4,5-dihydronaphtho[1,2-d]thiazol-2-yl)hydrazono)-3-(2-nitrophenyl) propanoic acid] | – | – | – | IC50 [1, 2]: 4 µM; IC50 (CRL2813 human melanoma; [3]): 7.5 µM
O=C(O)C(Cc1ccccc1[N+](=O)[O-])=NNc1nc(-c2ccc(OCCBr)cc2)cs1 (single isomer, unassigned) [KH146-f] | – | < 0.54 | 2.1 | –
O=C(O)C(Cc1ccccc1[N+](=O)[O-])=NNc1nc(-c2cccc(OCCCBr)c2)cs1 (single isomer, unassigned) [KH154-f] | – | 3.5 | 0.7 | –
O=C(O)/C(Cc1ccccc1[N+](=O)[O-])=N/Nc1nc2c(s1)COc1c-2ccc(Cl)c1Cl [PC-202F, 2-(2-(6,7-dichloro-4H-chromeno[4,3-d]thiazol-2-yl)hydrazono)-3-(2-nitrophenyl)propanoic acid] | – | – | – | IC50 (CRL2813 human melanoma; [3]): < 1 µM
2-(2-(7,8-dichloro-4,5-dihydronaphtho[1,2-d]thiazol-2-yl)hydrazono)-3-(2-nitrophenyl)propanoic acid [PC-159S] | – | – | – | IC50 [1, 4]: 12.5 µM; IC50 (CRL2813 human melanoma; [5]): 4 µM
CCN(CC)c1ccc(-c2csc(N/N=C(\Cc3ccccc3[N+](=O)[O-])C(=O)O)n2)cc1 [KY-615F] | – | – | – | IC50 [1, 4]: 5.7 µM; IC50 (CRL2813 human melanoma; [5]): 18.8 µM
O=C(O)/C(Cc1ccccc1[N+](=O)[O-])=N\Nc1nc2c(s1)CSc1cc(Cl)c(Cl)cc1-2 [PC-218S] | – | – | – | IC50 [1, 2]: 5.5 µM; IC50 (CRL2813 human melanoma; [3]): 3 µM

From patent publication US8969573B2, “Compounds for the inhibition of cellular proliferation” (President and Fellows of Harvard College, priority 2010, dated 2015)
